From US20160271100A1, “METHOD FOR TREATING TUMORS AND RADIOTHERAPY- AND CHEMOTHERAPY-[…] OR EMOTIONAL […] CANNABINOIDS” (GLIA LLC, priority 2014, published 2016)

How the values were obtained:
glioblastoma = assay: Course of glioblastoma (MRI/PET) under chemotherapy with or without topical dronabinol (same patient); format: in vivo, human; conditions: for adverse effects that led to discontinuation of chemotherapy: patient with glioblastoma
Experimental: By way of reminder, the patient described in the two examples set forth above was diagnosed with glioblastoma in February 2010. Approximately 95% of the tumor was surgically removed within 3 days of diagnosis. Following the surgery, the patient was treated with radiation, as well as by chemotherapy with a combination of temozolamide, topotecan, and bevacizumab. […] In May of 2011, the combination therapy was discontinued and the patient received only maintenance bevacizumab. MRI scans were performed every two months to monitor any changes in the brain.
The patient resumed chemotherapy with a combination of temozolamide, etoposide, and bevacizumab. […] The chemotherapy regimen was changed to carboplatin, irinotecan, together with bevacizumab.
As mentioned above, the patient was treated with 2.5 mg topical dronabinol beginning in December 2012 and continuing to the present.
On Mar. 19, 2014, a further increase in size of the tumor was noted. The secondary tumor was unchanged.
In early April 2014, the patient was again treated with temozolamide and bevacizumab.

[1] = tested on: chemo brain and brain fog (chemotherapy-associated cognitive or emotional impairment); assay: Daily low-dose topical dronabinol for chemo brain and brain fog induced by long term chemotherapy and radiation (single patient); conditions: 2.5 mg daily applied to forehead
Experimental: A person was diagnosed with glioblastoma in February 2010 and underwent immediate surgery to remove the tumor. Within 6 weeks of the surgery, they began radiotherapy and chemotherapy with a combination of temozolamide, topotecan, and bevacizumab.
Beginning in December of 2012 and continuing through March of 2014, the patient, who was not undergoing any chemotherapy at this time, was treated daily with 2.5 mg of dronabinol applied to their forehead. Daily evaluation by their caretaker and quarterly evaluations by a medical institution were documented during this treatment period.

[2] = tested on: chemo brain and brain fog; assay: Low dose topical dronabinol for chemo brain and brain fog induced by short-term chemotherapy (same patient)
Experimental: The patient was treated again with temozolamide, and bevacizumab.
Each morning, the patient was treated with dronabinol as described in Example 1 supra.

glioblastoma tumor = conditions: one human study; cited from earlier work

Bevacizumab: chemotherapy agent
adverse effects that led to discontinuation of chemotherapy (glioblastoma): hypertension and proteinuria

CCCCCc1cc(O)c2c(c1)OC(C)(C)[C@@H]1CCC(C)=C[C@@H]21 [dronabinol, (6aR,10aR)-6a,7,8,10a-tetrahydro-6,6,9-trimethyl-3-pentyl-6H-dibenzo[b,d]-pyran-1-ol]
tumor response by MRI, chemotherapy co-administered with topical dronabinol (glioblastoma; 2.5 mg topical dronabinol continued with temozolamide and bevacizumab, MRI 6 weeks after initiation of chemotherapy): shrinkage of both the primary tumor that had regrown into the extirpated space and the secondary tumor | primary tumor by MRI, topical dronabinol without chemotherapy (glioblastoma; 2.5 mg topical dronabinol, MRI December 6, 2013 and Mar. 19, 2014): increase in size of the primary tumor | secondary tumor by MRI, topical dronabinol without chemotherapy (glioblastoma; 2.5 mg topical dronabinol, Mar. 19, 2014): unchanged | cognitive functions, emotional skills, and social interaction skills ([1]; December 2012 to March 2014): showed daily and long term improvement | hallucinatory or adverse cognitive effects ([1]; December 2012 to March 2014): no hallucinatory or adverse cognitive effects were observed | time to signs of improved recognition, memory, and social interaction after initiation of treatment ([1]; patient not on chemotherapy): 1 to 2 days | hallucinatory or adverse cognitive effects ([2]; 2.5 mg topical each morning during chemotherapy): no hallucinatory or adverse cognitive effects were observed | time to significant diminishment of brain fog after each dose ([2]; 2.5 mg topical each morning during temozolamide and bevacizumab chemotherapy): ≤ 45 min | duration of the effects of administration ([2]; 2.5 mg topical each morning, six-week period): lasted until the following morning

CCCCCc1cc(O)c2c(c1)OC(C)(C)[C@@H]1CCC(C)=C[C@@H]21 [THC, tetrahydrocannabinol]
benefit of THC instilled into a glioblastoma tumor (glioblastoma tumor): failed to demonstrate a clear-cut benefit

O=NN(CCCl)C(=O)NC1CCCCC1 [lomustine]
adverse effects that led to discontinuation of chemotherapy (glioblastoma): hypertension and proteinuria
